Results taken from patent publication US10472610B2, “Method for generating pancreatic bud cells and therapeutic agent for pancreatic disease containing pancreatic bud cells” (Kyoto University, priority 2014, dated 2019).

What was measured:
[1] = tested on: iPS cell line 585A1; assay: Modified adherent culture protocol, additives during Stage 3, flow cytometer or image analyzer; format: cell-based, human; settings: for ratio of PDX1^+NKX6.1^+ cells / ratio of NKX6.1^+ cells: compound in Stage 3 medium, modified protocol, 4 days
Description: Cells of iPS cell line 585A1 were seeded on a Matrigel coated 24 well plate at a density of 2.0×10^5 cells/well, and the cells were cultured in RPMI 1640 Medium (Nacalai Tesque, Inc.) supplemented with 2% B-27 (Life Technologies), to which 100 ng/ml of activin A (R&D systems), 3 μM of CHIR99021 (Axon Medchem) and 10 μM of Y-27632 (Wako Pure Chemical Industries, Ltd.) were added, for one day. The medium was exchanged with RPMI 1640 Medium containing 100 ng/ml of activin A, 1 μM of CHIR99021 and 2% B-27 (Life Technologies), and the cells were cultured for two days. In addition, the medium was exchanged with RPMI 1640 Medium containing 100 ng/ml of activin A and 2% B-27 (Life Technologies), and the cells were cultured for one day.
The medium was exchanged with Improved MEM Zinc Option (Invitrogen) containing 50 ng/ml of KGF (R&D systems) and 1% B-27 (Life Technologies), and the cells were cultured for 3 or 4 days. Subsequently, the medium was exchanged with Improved MEM Zinc Option containing 50 ng/ml of KGF, 100 ng/ml of Noggin (Peprotech), 10 nM of TTNPB (Santa Cruz Biotechnology), 0.5 μM of 3-Keto-N-aminoethyl-N′-aminocaproyldihydrocinnamoyl Cyclopamine (KAAD-cyclopamine or K-CYC) (Toronto Research Chemicals) and 1% B-27 and the cells were cultured for 2 or 3 days.

[2] = tested on: human ES cell line KhES3; settings: added in Stage 3 on day 2 or after for 1-2 days
Description: In the figure, arrows indicate time periods when ALK5 inhibitor II was added to the medium. […] The expressions were measured by a flow cytometer. In the figure, numbers indicate the ratio of PDX1^+ and NKX6.1^+ cells contained in the culture.
The cells obtained in Stage 2 were dissociated into single cells with trypsin and seeded on a Low Attachment 96-well plate (Lipidure Coat, NOF) at a density of 3.0×10^3 to 3.0×10^4 cells/well. Improved MEM Zinc Option (15×10^4 cells/ml) containing 100 ng/ml of KGF, 100 ng/ml of Noggin, 50 ng/ml of EGF (R&D systems), 10 μM of Y-27632 and 1% B-27 was added to the plate, and the cells were further cultured for 4 to 20 days. During this time period, the medium was exchanged with fresh medium every 4 days. As a control, cells obtained in Stage 2 were dissociated into single cells with trypsin and seeded on a Matrigel coated 24 well plate (Greiner) at a density of 6.0×10^4 to 4.8×10^5 cells/cm^2 and cultured under adhesive conditions in the same medium for four days. […]
The cells obtained at four days after the start of Stage (S3d4) were treated with BD Cytofix/Cytoperm™ Kit, stained with an anti-PDX1 antibody (R&D systems) and an anti-NKX6.1 antibody (University of Iowa), and the ratio of PDX1^+ cells as well as the ratio of PDX1^+NKX6.1^+ cells were determined by using a flow cytometer.

[3] = tested on: iPS cell line 585A1; assay: Adherent culture protocol, Y-27632 during Stage 3, flow cytometry of PDX1/NKX6.1; format: cell-based, human; settings: four days
Description: Cells of iPS cell line 585A1 were seeded on a Matrigel coated 24 well plate at a density of 2.0×10^5 cells/well, and cultured in RPMI 1640 Medium (Nacalai Tesque, Inc.) supplemented with 2% B-27 (Life Technologies), 100 ng/ml of activin A (R&D systems), 3 μM of CHIR99021 (Axon Medchem) and 10 μM of Y-27632 (Wako Pure Chemical Industries, Ltd.) for one day. The medium was exchanged with RPMI 1640 Medium containing 100 ng/ml of activin A, 1 μM of CHIR99021 and 2% B-27 (Life Technologies), and the cells were cultured for two days. The medium was then exchanged with RPMI 1640 Medium containing 100 ng/ml of activin A and 2% B-27 (Life Technologies), and the cells were cultured for one day.
The medium of the culture obtained in Stage 1 was exchanged with Improved MEM Zinc Option (Invitrogen) containing 50 ng/ml of KGF (R&D systems) and 1% B-27 (Life Technologies) and the cells were cultured for three days. Subsequently, the medium was exchanged with Improved MEM Zinc Option containing 50 ng/ml of KGF, 100 ng/ml of Noggin (Peprotech), 10 nM of TTNPB (Santa Cruz Biotechnology), 0.5 μM of 3-Keto-N-aminoethyl-N′-aminocaproyldihydrocinnamoyl Cyclopamine (KAAD-cyclopamine or K-CYC) (Toronto Research Chemicals) and 1% B-27, and the cells were cultured for three days.

Structure (SMILES): O=S(=O)(c1cccc2cnccc12)N1CCCNCC1 [Fasudil]
- concentration at which the effect on the ratio of PDX1^+NKX6.1^+ cells was highest ([1]; Stage 3, modified protocol): 50 µM
- ratio of PDX1^+NKX6.1^+ cells [1]: increased in a concentration-dependent manner

Structure (SMILES): Cc1cncc2cccc(S(=O)(=O)N3CCCNC[C@@H]3C)c12 [H-1152]
- concentration at which the effect on the ratio of NKX6.1^+ cells was highest ([1]; Stage 3, modified protocol): 50 µM
- ratio of NKX6.1^+ cells [1]: increased in a concentration-dependent manner

Structure (SMILES): CN(C)CCOc1cc(-c2cn[nH]c2)ccc1NC(=O)C1COc2ccccc2O1 (centres unmarked) [SR3677]
- concentration at which the effect on the ratio of NKX6.1^+ cells was highest ([1]; Stage 3, modified protocol): 5 µM
- ratio of NKX6.1^+ cells [1]: increased in a concentration-dependent manner

Structure (SMILES): CCn1c(-c2nonc2N)nc2cnc(Oc3cccc(NC(=O)c4ccc(OCCN5CCOCC5)cc4)c3)cc21 [GSK269962]
- concentration at which the effect on the ratio of NKX6.1^+ cells was highest ([1]; Stage 3, modified protocol): 1 µM
- ratio of NKX6.1^+ cells [1]: increased in a concentration-dependent manner

Structure (SMILES): Cc1cccc(-c2n[nH]cc2-c2ccc3ncccc3n2)n1 [ALK5 inhibitor II, 2-[3-[6-methylpyridin-2-yl]-1H-pyrazol-4-yl]-1,5-naphthyridine]
- ratio of PDX1^+NKX6.1^+ cells [2]: increased

Structure (SMILES): Cc1ccc2c(c1)C(=O)C1(O)CCN(c3ccccc3)C1=N2 (centres unmarked) [Blebbistatin]
- concentration from which the ratio of PDX1^+NKX6.1^+ cells increased ([1]; Stage 3, modified protocol): 5 µM
- concentration up to which the effect on the ratio of PDX1^+NKX6.1^+ cells was high ([1]; Stage 3, modified protocol): up to 20 μM
- ratio of PDX1^+NKX6.1^+ cells [1]: increased

Structure (SMILES): C[C@@H](N)[C@H]1CC[C@H](C(=O)Nc2ccncc2)CC1 [Y-27632]
- concentration at which the effect on the ratio of PDX1^+NKX6.1^+ cells was highest ([3]; Stage 3, adherent culture): 100 µM
- ratio of PDX1^+NKX6.1^+ cells ([3]; compound in Stage 3 medium, adherent culture): increased in a concentration-dependent manner
